Measurements published in patent US6590140B1, “Metal-regulated transporters and uses therefor” (Trustees of Dartmouth College, priority 1996, dated 2003).
Read-outs that look alike come from different tables or passages of the source.

Assays:
[1] = molecular target: T1, high affinity zinc uptake system (Zrt1p) (Saccharomyces cerevisiae, UniProt P32804); experiment: 65Zn uptake assay in yeast, high affinity zinc uptake system; assay type: cell-based; details: for effect on zinc uptake by the high affinity system: 20 μM added metal, zinc-limited wild type
T1 construct: endogenous in cells; host or cells: S. cerevisiae DY1457 (wild type, zinc-limited) and ZHY2 (zrt2); one kinetic value comes from ZHY1 carrying pOE1 (ZRT1 ORF under the GAL1 promoter)
T1 sequence (P32804 whole entry): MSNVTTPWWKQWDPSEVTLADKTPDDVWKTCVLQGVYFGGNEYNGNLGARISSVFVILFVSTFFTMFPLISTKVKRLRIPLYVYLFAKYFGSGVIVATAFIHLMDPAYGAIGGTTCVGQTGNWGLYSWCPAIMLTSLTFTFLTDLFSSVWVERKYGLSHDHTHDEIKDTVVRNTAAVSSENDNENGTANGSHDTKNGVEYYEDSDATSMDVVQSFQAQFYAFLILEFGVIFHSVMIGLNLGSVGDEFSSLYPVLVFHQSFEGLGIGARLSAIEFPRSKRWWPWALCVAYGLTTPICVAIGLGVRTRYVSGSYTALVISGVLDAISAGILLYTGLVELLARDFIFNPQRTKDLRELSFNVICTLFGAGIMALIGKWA
Method: (§1) Zinc uptake assays were performed as described previously for iron uptake (Eide et al. J. Biol. Chem. 267:20774-20781) except that ^65ZnCl2 (Amersham Corp., Arlington Heights, Ill.) and LZM-EDTA were substituted for ^59FeCl3 and LIM-EDTA. Cells were incubated at 30° C. with ^65Zn for five minutes, filtered, and washed with 10 ml ice-cold SSW. Cell-associated radioactivity was measured by liquid scintillation. Kinetic values were derived using KinetAsyst software (IntelliKinetics, Princeton, N.J.). Zinc accumulation was measured in cells grown in LZM medium supplemented with […] ^65Zn plus nonradioactive zinc to the indicated final concentration. Aliquots (0.5 ml) were filtered, washed with 10 ml ice-cold SSW, and counted by liquid scintillation. b-galactosidase activity was assayed as described by Guarente (Guarante, L. (1983) Methods Enzymol101:181-191).
(§2) Zinc uptake assays were performed as described previously for iron uptake (Eide et al. (1992) J. Biol. Chem. 267:20774-20781) except that ^65ZnCl2 (Amersham) and LZM-EDTA were substituted for ^59FeCI3 and LIM-EDTA, respectively. Cells were incubated for 5 minutes in LZM-EDTA plus the indicated concentration of ^65Zn, collected on glass fiber filters (Schleicher and Schuell), washed with 10 ml ice-cold SSW (1 mM EDTA, 20 mM trisodium citrate, 1 mM KH2PO4, 1 mM CaCl2, 5 mM MgSO4, 1 mM NaCl pH 4.2), and cell-associated radioactivity was measured by liquid scintillation counting. Cells were starved for glucose by incubating them in LZM-EDTA prepared without glucose for one hour at 30° C. prior to assay. Michaelis-Menten kinetic values were determined using […] software (Intellikinetics, Princeton, N.J.). Stock solutions of the chloride salts of Co, Cu, Mg, Mn, and Ni were prepared in distilled water at a concentration of 100 mM. The nonradioactive ZnCl2 stock was prepared at 100 mM in 0.02 N HCl and the FeCl3 stock was prepared at 50 mM in 0.1 N HCl. The statistical significance of the differences of values relative to controls was determined with one-way analysis of variance (ANOVA) followed by a Dunnett multiple comparison test. β-galactosidase activity was assayed in cells harvested at an OD600 of 0.5-2.0 as described by Guarente (Guarente, L. (1983) Methods Enzymol. 101:181-191) and activity is expressed as the change in absorbance at 420 nm×1000 divided by (min×ml of culture used×OD600 of the culture). Cell-associated zinc was measured in parallel cultures supplemented with tracer amounts of ^65Zn (10 μM) and nonradioactive zinc to the indicated final concentration. Aliquots (0.5 ml) were filtered, washed with 10 ml ice-cold SSW, and radioactivity measured by liquid scintillation.
(§3) To determine if ZRT1 plays a role in zinc uptake, the biochemical properties of this process in wild type cells were first characterized. […] Wild type (FIG. 10, DY1457, squares) and zrt1 mutant (FIG. 10, ZHY1, circles) cells were grown to exponential phase in zinc-limited (open symbols, FIG. 10) and zinc-replete (FIG. 10, closed symbols) media and assayed for zinc uptake rate over a range ZnSO4 concentrations. Zinc-limited media was LZM+10 μM zinc for the wild type and LZM+500 μM zinc for the mutant. Zinc-replete conditions were LZM+1000 μM for both strains. ZHY1(pOE1) cells (FIG. 10, triangles) were grown in zinc-replete SDgal medium.
(§4) Mutant zrt1 (ZHY1) cells were grown in LZM supplemented with 1 mM ZnCl2. Cells were incubated with 10 μM ^65Zn for the indicated times at either […]

[2] = molecular target: T2, low affinity zinc uptake system (Zrt2p) (Saccharomyces cerevisiae, UniProt Q12436); assay type: cell-based; details: for effect on zinc uptake by the low affinity system / uptake rate of radioactive zinc, % of the control rate: 200 μM added metal, zrt1 mutant cells; for inhibition of pMC4- and pOE2-dependent zinc uptake activity: ZRT2 overexpressing zrt1 cells; for zinc accumulation: 30° C., 10 μM 65Zn
T2 construct: endogenous in cells; host or cells: S. cerevisiae ZHY1 (zrt1::LEU2) and zinc-replete DY1457; some values come from ZHY1 carrying pMC4 (multicopy genomic ZRT2) or pOE2 (ZRT2 ORF under GAL1)
T2 sequence (Q12436 whole entry): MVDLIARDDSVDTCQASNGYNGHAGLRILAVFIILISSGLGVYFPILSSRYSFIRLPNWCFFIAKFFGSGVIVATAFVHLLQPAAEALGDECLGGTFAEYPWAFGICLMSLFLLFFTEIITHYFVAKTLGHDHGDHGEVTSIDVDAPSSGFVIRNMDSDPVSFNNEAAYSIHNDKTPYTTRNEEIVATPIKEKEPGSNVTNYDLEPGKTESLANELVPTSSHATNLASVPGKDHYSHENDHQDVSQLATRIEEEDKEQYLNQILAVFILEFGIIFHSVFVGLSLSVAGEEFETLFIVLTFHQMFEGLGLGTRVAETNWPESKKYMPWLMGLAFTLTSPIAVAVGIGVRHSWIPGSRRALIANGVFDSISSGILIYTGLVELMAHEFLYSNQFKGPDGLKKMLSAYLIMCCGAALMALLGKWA
Method: as §1, §2, §3, §4

[3] = zrt1 cells grown in SD glucose supplemented with 2 mM ZnCl2

For [Cl][Fe]([Cl])[Cl] [Fe(III)], the “effect on zinc uptake by the high affinity system” value ([1]; 2 μM 65Zn, five minutes) was “unaffected” and the “effect on zinc uptake by the low affinity system” value ([2]; 20 μM 65Zn, five minutes) was “did not diminish zinc uptake”.
In the case of [Cl-].[Cl-].[Co+2] [Co], the “effect on zinc uptake by the high affinity system” value ([1]; 2 μM 65Zn, five minutes) is reported as “unaffected” and the “effect on zinc uptake by the low affinity system” value ([2]; 20 μM 65Zn, five minutes) is reported as “did not diminish zinc uptake”.
For [Fe+2] [Fe(II)], the “effect on zinc uptake by the high affinity system” value ([1]; 2 μM 65Zn, five minutes) was “inhibitory”, the “uptake rate of radioactive zinc, % of the control rate” value (from here on “uptake rate … % of the control rate”) ([2]; 20 μM 65Zn, five minutes) was 79% and the “inhibition of pMC4- and pOE2-dependent zinc uptake activity” value [2] was “inhibited”.
For [Zn+2] [zinc], the “control rate of zinc uptake” value ([1]; 2 μM 65Zn, five minutes, wild type grown in LZM + 10 μM ZnCl2, no other metal) was 47 pmol/min/10^6 cells, the “effect on zinc uptake by the high affinity system” value ([1]; 2 μM 65Zn, five minutes) was “inhibitory” and the “Vmax of zinc uptake” value ([1]; ZHY1(pOE1), ZRT1 expressed from GAL1 promoter, zinc-replete cells, galactose) was 30 pmol/min/10^6 cells. For the same molecule, the Km ([1]; ZHY1(pOE1), ZRT1 expressed from GAL1 promoter, zinc-replete cells, galactose, read-out: apparent Km of zinc uptake) was 0.6 ± 0.1 µM, the Km ([1]; calculated free zinc, read-out: apparent Km of the high affinity system, calculated free zinc concentration) was about 0.01 µM and the Km ([1]; total zinc, read-out: apparent Km of the high affinity system, total zinc) was 1 µM. For the same molecule, the “Vmax of zinc uptake” value ([1]; wild type DY1457, zinc-limited cells (LZM+10 μM zinc)) was 80 pmol/min/10^6 cells, the Km ([1]; wild type DY1457, zinc-limited cells (LZM+10 μM zinc), read-out: apparent Km of zinc uptake) was 1 ± 0.1 µM and the Vmax ([1]; wild type, low growth medium [Zn] (LZM + 10 μM ZnCl2), mean ± SE) was 76 ± 2 pmol/min/10^6. The Km ([1]; wild type, low growth medium [Zn] (LZM + 10 μM ZnCl2), total zinc, mean ± SE, read-out: Km) was 0.52 ± 0.07 µM, the Vmax ([1]; zrt2, high growth medium [Zn] (LZM + 1.5 mM ZnCl2), mean ± SE) was 0.31 ± 0.01 pmol/min/10^6 and the Km ([1]; zrt2, high growth medium [Zn] (LZM + 1.5 mM ZnCl2), total zinc, mean ± SE, read-out: Km) was 0.4 ± 0.04 µM. For the same molecule, the Vmax ([1]; zrt2, low growth medium [Zn], mean ± SE) was 60 ± 2 pmol/min/10^6, the Km ([1]; zrt2, low growth medium [Zn], total zinc, mean ± SE, read-out: Km) was 0.85 ± 0.18 µM and the “control rate of zinc uptake” value ([2]; 20 μM 65Zn, five minutes, zrt1 (ZHY1) grown in LZM + 1 mM ZnCl2, no other metal) was 0.9 pmol/min/10^6 cells. For the same molecule, the “uptake rate … % of the control rate” value ([2]; 20 μM 65Zn, five minutes) was “approximately 10%”, the “rate of zinc uptake of pMC4 transformants relative to vector control” value ([2]; ZHY1 (zrt1) with pMC4 vs YEp24, SD glucose, all 65Zn concentrations tested) was “approximately 15 fold” and the Vmax ([2]; ZHY1 (zrt1) with plasmid pMC4, SD glucose, mean ± SE) was 28 ± 1 pmol/min/10^6. The Km ([2]; ZHY1 (zrt1) with plasmid pMC4, SD glucose, total zinc, mean ± SE, read-out: Km) was 8 ± 0.4 µM, the Vmax ([2]; ZHY1 (zrt1) with plasmid pOE2 (GAL1-ZRT2), SD galactose, mean ± SE) was 17 ± 2 pmol/min/10^6 and the Km ([2]; ZHY1 (zrt1) with plasmid pOE2 (GAL1-ZRT2), SD galactose, total zinc, mean ± SE, read-out: Km) was 3.6 ± 0.1 µM. It also gave a Vmax ([2]; ZHY1 (zrt1) with vector (YEp24, control for pMC4), SD glucose, mean ± SE) of 2.2 ± 0.1 pmol/min/10^6, a Km ([2]; ZHY1 (zrt1) with vector (YEp24, control for pMC4), SD glucose, total zinc, mean ± SE, read-out: Km) of 9.5 ± 0.8 µM and a Vmax ([2]; ZHY1 (zrt1) with vector (pRS316-GAL1, control for pOE2), SD galactose, mean ± SE) of 2.0 ± 0.1 pmol/min/10^6. For the same molecule, the Km ([2]; ZHY1 (zrt1) with vector (pRS316-GAL1, control for pOE2), SD galactose, total zinc, mean ± SE, read-out: Km) was 10 ± 1 µM, the Km ([2]; calculated free zinc, read-out: apparent Km of the low affinity system, free zinc) was about 0.1 µM and the zinc accumulation ([2]; glucose-starved zrt1 cells, five minutes) was “no detectable zinc accumulation”. It also gave a Km ([2]; total zinc, read-out: apparent Km of the low affinity system) of 10 µM, a Vmax ([2]; wild type, high growth medium [Zn] (LZM + 1.5 mM ZnCl2), mean ± SE) of 0.60 ± 0.03 pmol/min/10^6 and a Km ([2]; wild type, high growth medium [Zn] (LZM + 1.5 mM ZnCl2), total zinc, mean ± SE, read-out: Km) of 15 ± 3 µM. The Km ([2]; wild type, zinc-replete cells (LZM+1000 μM), read-out: apparent Km of zinc uptake) was 10 ± 1 µM, the “Vmax of zinc uptake” value ([2]; zinc-replete cells) was 2 pmol/min/10^6 cells and the Vmax ([2]; zrt1, high growth medium [Zn], mean ± SE) was 0.52 ± 0.04 pmol/min/10^6. The Km ([2]; zrt1, high growth medium [Zn], total zinc, mean ± SE, read-out: Km) was 10 ± 1 µM, the zinc uptake rate [2, 3] was 0.12 pmol/min/106 cells and the “zinc uptake rate relative to untreated cells” value [2, 3] was 7%. The zinc uptake rate ([2]; zrt1 cells grown in zinc-replete SD glucose, assayed at 10, M 65Zn) was 1.7 pmol/min/10^6 cells, the zinc accumulation ([2]; zrt1 cells incubated with glucose, five minutes) was 3.7 pmol/10^6 cells and the “Vmax of zinc uptake” value ([2]; zrt1 mutant cells grown in zinc-limiting and zinc-replete media) was 1-2 pmol/min/10^6 cells. For the same molecule, the Km ([2]; zrt1 mutant cells grown in zinc-limiting and zinc-replete media, read-out: apparent Km of zinc uptake) was 10 ± 1 µM.
[Cl][Mn][Cl] [Mn] was tested, and the “effect on zinc uptake by the high affinity system” value ([1]; 2 μM 65Zn, five minutes) was “unaffected” and the “effect on zinc uptake by the low affinity system” value ([2]; 20 μM 65Zn, five minutes) was “did not diminish zinc uptake”.
[Cl][Ni][Cl] [Ni] was tested, and the “effect on zinc uptake by the high affinity system” value ([1]; 2 μM 65Zn, five minutes) was “unaffected” and the “effect on zinc uptake by the low affinity system” value ([2]; 20 μM 65Zn, five minutes) was “did not diminish zinc uptake”.
For [Cl][Cu][Cl] [Cu], the “effect on zinc uptake by the high affinity system” value ([1]; 2 μM 65Zn, five minutes) was “inhibitory”, the “uptake rate … % of the control rate” value ([2]; 20 μM 65Zn, five minutes) was 32% and the “inhibition of pMC4- and pOE2-dependent zinc uptake activity” value [2] was “inhibited”.
